# Data: patent publication US20240270741A1 (Cogent Biosciences, Inc., priority 2023, published 2024)
# Biological target: FGFR2 (Homo sapiens, UniProt P21802)
# Test: FGFR wild type enzyme assay (HTRF KinEASE-TK), FGFR2
# Details: Enz FGFR2 (nM), FGFR2 wild type enzyme
# FGFR2, sequence (P21802 399-821 limits assumed): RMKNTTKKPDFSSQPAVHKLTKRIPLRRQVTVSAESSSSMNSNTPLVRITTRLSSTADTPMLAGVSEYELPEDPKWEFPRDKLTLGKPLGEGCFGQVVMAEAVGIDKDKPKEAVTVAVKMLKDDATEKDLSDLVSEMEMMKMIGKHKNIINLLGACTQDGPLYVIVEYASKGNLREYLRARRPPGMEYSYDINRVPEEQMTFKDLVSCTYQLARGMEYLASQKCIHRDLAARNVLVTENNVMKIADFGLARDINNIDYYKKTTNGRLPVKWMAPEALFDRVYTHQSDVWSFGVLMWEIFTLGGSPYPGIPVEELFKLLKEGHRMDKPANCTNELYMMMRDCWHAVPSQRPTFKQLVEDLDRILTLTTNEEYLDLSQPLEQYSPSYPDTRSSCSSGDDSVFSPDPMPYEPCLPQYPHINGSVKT
row,Structure (SMILES),IC50
1,"Cc1c(-c2cc(Sc3ccc(F)cn3)c3c(C#N)cnn3c2)cnn1C1CCN(C)CC1 [Example 329, 4-((5-fluoropyridin-2-yl)thio)-6-(5-methyl-1-(1-methylpiperidin-4-yl)-1H-pyrazol-4-yl)pyrazolo[1,5-a]pyridine-3-carbonitrile]",5 nM
2,"Cc1c(-c2cc(Sc3ccc(F)cc3C#N)c3c(C#N)cnn3c2)cnn1C1CCN(C(C)C)CC1 [Example 330, 4-((2-cyano-4-fluorophenyl)thio)-6-(1-(1-isopropylpiperidin-4-yl)-5-methyl-1H-pyrazol-4-yl)pyrazolo[1,5-a]pyridine-3-carbonitrile]",1 nM
3,"Cc1c(-c2cc(Sc3ccc(F)cc3C#N)c3c(C#N)cnn3c2)cnn1C1CCN(C[C@@H](C)O)CC1 [Example 331, (R)-4-((2-cyano-4-fluorophenyl)thio)-6-(1-(1-(2-hydroxypropyl)piperidin-4-yl)-5-methyl-1H-pyrazol-4-yl)pyrazolo[1,5-a]pyridine-3-carbonitrile]",1 nM
4,"Cc1c(-c2cc(Sc3ccc(F)cc3C#N)c3c(C#N)cnn3c2)cnn1[C@H]1CCCN(C(=O)CO)C1 [Example 332, (S)-4-((2-cyano-4-fluorophenyl)thio)-6-(1-(1-(2-hydroxyacetyl)piperidin-3-yl)-5-methyl-1H-pyrazol-4-yl)pyrazolo[1,5-a]pyridine-3-carbonitrile]",1 nM

# Same assay, conditions: Enz FGFR2 (nM), FGFR2 wild type enzyme assay
row,Structure (SMILES),IC50
1,"Cc1c(-c2cc(Sc3ccc(F)cc3C#N)c3c(C#N)cnn3c2)cnn1[C@H]1CCCNC1 [Example 333, (S)-4-((2-cyano-4-fluorophenyl)thio)-6-(5-methyl-1-(piperidin-3-yl)-1H-pyrazol-4-yl)pyrazolo[1,5-a]pyridine-3-carbonitrile]",1 nM
2,"CC(=O)N1CCC[C@H](n2ncc(-c3cc(Sc4ccc(F)cc4C#N)c4c(C#N)cnn4c3)c2C)C1 [Example 334, (S)-6-(1-(1-acetylpiperidin-3-yl)-5-methyl-1H-pyrazol-4-yl)-4-((2-cyano-4-fluorophenyl)thio)pyrazolo [1,5-a]pyridine-3-carbonitrile]",1 nM
3,"Cc1c(-c2cc(Sc3ccc(F)cc3C#N)c3c(C#N)cnn3c2)cnn1[C@H]1CCCN(C)C1 [Example 335, (S)-4-((2-cyano-4-fluorophenyl)thio)-6-(5-methyl-1-(1-methylpiperidin-3-yl)-1H-pyrazol-4-yl)pyrazolo[1,5-a]pyridine-3-carbonitrile]",1 nM
4,"Cc1c(-c2cc(Sc3ccc(F)cc3C#N)c3c(C#N)cnn3c2)cnn1[C@H]1CCCN(CCO)C1 [Example 336, (S)-4-((2-cyano-4-fluorophenyl)thio)-6-(1-(1-(2-hydroxyethyl)piperidin-3-yl)-5-methyl-1H-pyrazol-4-yl)pyrazolo[1,5-a]pyridine-3-carbonitrile]",1 nM
5,"Cc1nn([C@H]2CC[C@@H](N(C)C)CC2)c(C)c1-c1cc(Sc2ccccc2C#N)c2c(C#N)cnn2c1 [Example 337, 4-((2-cyanophenyl)thio)-6-(1-((1s,4s)-4-(dimethylamino)cyclohex-yl)-3,5-dimethyl-1H-pyrazol-4-yl)pyrazolo[1,5-a]pyridine-3-carbonitrile]",3 nM
6,"CC(=O)N1CCC(n2ncc(-c3cc(Sc4ccc(F)cc4C#N)c4c(C#N)cnn4c3)c2C)CC1 [Example 338, 6-(1-(1-acetylpiperidin-4-yl)-5-methyl-1H-pyrazol-4-yl)-4-((2-cyano-4-fluorophenyl)thio)pyrazolo [1,5-a]pyridine-3-carbonitrile]",1 nM
7,"Cc1c(-c2cc(Sc3ccc(F)cc3C#N)c3c(C#N)cnn3c2)cnn1C1CCN(C(=O)CO)CC1 [Example 339, 4-((2-cyano-4-fluorophenyl)thio)-6-(1-(1-(2-hydroxyacetyl)piperidin-4-yl)-5-methyl-1H-pyrazol-4-yl)pyrazolo[1,5-a]pyridine-3-carbonitrile]",1 nM
8,"C#Cc1cnn2cc(-c3cnn(C4CCN(C(=O)CO)CC4)c3C)cc(Sc3ccc(F)cn3)c12 [Example 340, 1-(4-(4-(3-ethynyl-4-((5-fluoropyridin-2-yl)thio)pyrazolo[1,5-a]pyridin-6-yl)-5-methyl-1H-pyrazol-1-yl)piperidin-1-yl)-2-hydroxyethan-1-one]",7.5 nM
9,"Cc1c(-c2cc(Sc3ccc(F)cn3)c3c(C#N)cnn3c2)cnn1C1CCN(C(=O)[C@H](C)O)CC1 [Example 341, (S)-4-((5-fluoropyridin-2-yl)thio)-6-(1-(1-(2-hydroxypropanoyl)piperidin-4-yl)-5-methyl-1H-pyrazol-4-yl)pyrazolo[1,5-a]pyridine-3-carbonitrile]",9 nM
10,"Cc1c(-c2cc(Sc3ncc(F)cc3F)c3c(C#N)cnn3c2)cnn1C1CCN(C(=O)[C@H](C)O)CC1 [Example 342, (S)-4-((3,5-difluoropyridin-2-yl)thio)-6-(1-(1-(2-hydroxypropanoyl)piperidin-4-yl)-5-methyl-1H-pyrazol-4-yl)pyrazolo[1,5-a]pyridine-3-carbonitrile]",6 nM
11,"Cc1c(-c2cc(Sc3ccc(F)cn3)c3c(C#N)cnn3c2)cnn1[C@H]1CCCN(C)C1 [Example 343, (S)-4-((5-fluoropyridin-2-yl)thio)-6-(5-methyl-1-(1-methylpiperidin-3-yl)-1H-pyrazol-4-yl)pyrazolo[1,5-a]pyridine-3-carbonitrile]",9 nM
12,"Cc1c(-c2cc(Sc3ncc(F)cc3F)c3c(C#N)cnn3c2)cnn1[C@H]1CC[C@@H](NC(=O)CO)CC1 [Example 344, N-((1s,4s)-4-(4-(3-cyano-4-((3,5-difluoropyridin-2-yl)thio)pyrazolo[1,5-a]pyridin-6-yl)-5-methyl-1H-pyrazol-1-yl)cyclohexyl)-2-hydroxyacetamide]",3 nM
13,"Cc1c(-c2cc(Sc3ncc(F)cc3F)c3c(C#N)cnn3c2)cnn1[C@H]1CCCNC1 [Example 345, (S)-4-((3,5-difluoropyridin-2-yl)thio)-6-(5-methyl-1-(piperidin-3-yl)-1H-pyrazol-4-yl)pyrazolo[1,5-a]pyridine-3-carbonitrile]",4 nM
14,"Cc1c(-c2cc(Sc3ncc(F)cc3F)c3c(C#N)cnn3c2)cnn1[C@H]1CCCN(C)C1 [Example 346, (S)-4-((3,5-difluoropyridin-2-yl)thio)-6-(5-methyl-1-(1-methylpiperidin-3-yl)-1H-pyrazol-4-yl)pyrazolo[1,5-a]pyridine-3-carbonitrile]",5 nM
15,"CN[C@H]1CC[C@H](n2ncc(-c3cc(Sc4ccccn4)c4c(C#N)cnn4c3)c2C)CC1 [Example 347, 6-(5-methyl-1-((1r,4r)-4-(methylamino)cyclohexyl)-1H-pyrazol-4-yl)-4-(pyridin-2-ylthio)pyrazolo[1,5-a]pyridine-3-carbonitrile]",2.5 nM
16,"CN[C@]1(C)CC[C@H](n2ncc(-c3cc(Sc4ccccn4)c4c(C#N)cnn4c3)c2C)CC1 [Example 348, 6-(5-methyl-1-((1s,4s)-4-methyl-4-(methylamino)cyclohexyl)-1H-pyrazol-4-yl)-4-(pyridin-2-ylthio)pyrazolo[1,5-a]pyridine-3-carbonitrile]",2 nM
17,"CC(=O)N[C@H]1CC[C@@H](n2cc(-c3cc(Sc4ccc(F)cn4)c4c(C#N)cnn4c3)cn2)CC1 [Example 349, N-((1s,4s)-4-(4-(3-cyano-4-((5-fluoropyridin-2-yl)thio)pyrazolo[1,5-a]pyridin-6-yl)-1H-pyrazol-1-yl)cyclohexyl)acetamide]",3 nM
18,"CC(=O)N[C@H]1CC[C@H](n2cc(-c3cc(Sc4ccccc4C#N)c4c(C#N)cnn4c3)cn2)C1 [Example 350, N-((1s,3S)-3-(4-(3-cyano-4-((2-cyanophenyl)thio)pyrazolo [1,5-a]pyridin-6-yl)-1H-pyrazol-1-yl)cyclopentyl)acetamide]",0.5 nM
19,"Cc1c(-c2cc(Sc3ccc(F)cc3C#N)c3c(C#N)cnn3c2)cnn1[C@H]1CC[C@](C)(N)CC1 [Example 351, 6-(1-((1r,4r)-4-amino-4-methylcyclohexyl)-5-methyl-1H-pyrazol-4-yl)-4-((2-cyano-4-fluorophenyl)thio)pyrazolo [1,5-a]pyridine-3-carbonitrile]",0.5 nM
20,"CN[C@]1(C)CC[C@@H](n2ncc(-c3cc(Sc4ccc(F)cc4C#N)c4c(C#N)cnn4c3)c2C)CC1 [Example 352, 4-((2-cyano-4-fluorophenyl)thio)-6-(5-methyl-1-((1r,4r)-4-methyl-4-(methylamino)cyclohexyl)-1H-pyrazol-4-y)pyrazolo[1,5-a]pyridine-3-carbonitrile]",0.6 nM
21,"Cc1c(-c2cc(Sc3ccc(F)cc3C#N)c3c(C#N)cnn3c2)cnn1C1CCN(CCO)CC1 [Example 353, 4-((2-cyano-4-fluorophenyl)thio)-6-(1-(1-(2-hydroxyethyl)piperidin-4-yl)-5-methyl-1H-pyrazol-4-yl)pyrazolo[1,5-a]pyridine-3-carbonitrile]",1 nM
22,"Cc1c(-c2cc(Sc3ccc(F)cc3C#N)c3c(C#N)cnn3c2)cnn1C1CCN(C[C@H](C)O)CC1 [Example 354, (S)-4-((2-cyano-4-fluorophenyl)thio)-6-(1-(1-(2-hydroxypropyl)piperidin-4-yl)-5-methyl-1H-pyrazol-4-yl)pyrazolo[1,5-a]pyridine-3-carbonitrile]",2.5 nM
23,"Cc1cccc(Sc2cc(-c3cnn(C4CCN(C)CC4)c3C)cn3ncc(C#N)c23)c1C#N [Example 355, 4-((2-cyano-3-methylphenyl)thio)-6-(5-methyl-1-(1-methylpiperidin-4-yl)-1H-pyrazol-4-yl)pyrazolo[1,5-a]pyridine-3-carbonitrile]",2 nM
24,"Cc1c(-c2cc(Sc3cccc(F)c3C#N)c3c(C#N)cnn3c2)cnn1C1CCN(C)CC1 [Example 356, 4-((2-cyano-3-fluorophenyl)thio)-6-(5-methyl-1-(1-methylpiperidin-4-yl)-1H-pyrazol-4-yl)pyrazolo[1,5-a]pyridine-3-carbonitrile]",10 nM
25,"Cc1ccc(C#N)c(Sc2cc(-c3cnn(C4CCN(C)CC4)c3C)cn3ncc(C#N)c23)c1 [Example 357, 4-((2-cyano-5-methylphenyl)thio)-6-(5-methyl-1-(1-methylpiperidin-4-yl)-1H-pyrazol-4-yl)pyrazolo[1,5-a]pyridine-3-carbonitrile]",2 nM
